Laboratory results taken from patent US10653664B2, “Antibacterial compositions of mono-alkyl ethers of monoanhydro-hexitols and antibacterial methods using of the same” (TEREOS STARCH & SWEETENERS, priority 2014, dated 2020).
In brackets after ≈: the same amount, converted by molar mass.

How the values were obtained:
Experiment in all cases: MIC, 96-well microplate microdilution (Example 14)
Assay type in all cases: cell-based
S. aureus (ATCC 292213) = details: for MIC: Staphylococcus aureus, ATCC292213, Table 5, read-out: Minimum inhibitory concentration (MIC)
Method: (§1) The bacteriostatic properties of the derivatives are evaluated by measuring their minimum inhibitory concentration (MIC) on the bacteria tested. These measurements are made using the 96-well microplate microdilution method according to the conditions defined below. The minimum inhibitory concentrations (MIC) are tested on Gram-positive bacterial strains according to the recommendations of the “Clinical Laboratory Standards Institute” (Clinical-Laboratory-Standards-Institute, 6th ed. Approved standard M100-S17. CLSI, Wayne, Pa., 2007). The Gram-positive bacteria studied are as follows: L. monocytogenes (CIP 103575), E. faecalis (ATCC® 29212™) and S. aureus (ATCC® 292213 ™). The cultures studied, freshly isolated (after incubation on a blood agar at 37° C. for 18 h), are taken up in sterile water (10 mL) until obtaining a 0.5 McFarland (Mc) suspension i.e. 1 to 2×10^8 CFU (bacteria)/cm^3. The bacterial suspension was then diluted to obtain a final concentration of 5×10^5 CFU/cm3. Each well contains an identical quantity of Mueller-Hinton medium (a rich medium for bacterial culture) and bacteria with final 5×10^5 CFU/cm3. The test compounds of interest are solubilized in 2.5% of ethanol before being diluted to different concentrations two by two. On the multiwell plate, a first series has been planned comprising the culture medium without the test compound of interest. It corresponds to the growth control (control well). These controls serve as reference for comparing bacterial growth with that of the subsequent wells comprising different concentrations of the test compound of interest. The second series of wells comprises the mother solution for the test compound of interest for a concentration in the wells of 4 mM. Each series of wells was diluted two by two until the last series for a final concentration of 0.003 mM. Each concentration is duplicated in the same plate. The plate is incubated for 18 h at 37° C. […] If there is antibacterial activity, the bacterial growth is inhibited, which means that no turbidity or bacterial residue is present.

E. faecalis (ATCC 29212) = details: Enterococcus faecalis, ATCC29212, Table 5, read-out: Minimum inhibitory concentration (MIC)
Method: as §1

[1] = system: L. monocytogenes (CIP 103575); details: for MIC: Listeria monocytogenes, CIP103575, Table 5, read-out: Minimum inhibitory concentration (MIC)
Method: as §1

[2] = Table 7 comparison with reference products

MIC (S. aureus (ATCC 292213)) [mM] | MIC (E. faecalis (ATCC 29212)) [mM] | MIC [1] [mM] | Minimum inhibitory concentration (MIC) (S. aureus (ATCC 292213); [2]) [mM] | Minimum inhibitory concentration (MIC) [1, 2] [mM] | Compound
> 4 | > 4 | > 4 | – | – | CCCCCOCC(O)[C@H]1OCC(O)C1O (some centres unmarked) [Entry 1, (1,4)-sorbitan pentyl ethers]
> 4 | > 4 | > 4 | – | – | CCCCCCOCC(O)[C@H]1OCC(O)C1O (some centres unmarked) [Entry 2]
> 4 | > 4 | > 4 | – | – | CCCCCCCCOCC(O)[C@H]1OCC(O)C1O (some centres unmarked) [Entry 3, Octyl-1,4-sorbitan]
> 4 | > 4 | > 4 | – | – | CCCCCCCCCCOCC(O)[C@H]1OCC(O)C1O (some centres unmarked) [Entry 4, Decyl-1,4-sorbitan]
– | – | – | 0.04 (≈ 11 µg/mL) | 0.04 (≈ 11 µg/mL) | CCCCCCCCCCCC(=O)OCC(O)CO (centres unmarked) [ML, monolaurine, reference compound]
